Reference: ChEMBL document CHEMBL2440055, “Unusual transformation of substituted-3-formylchromones to pyrimidine analogues: synthesis and antimicrobial activities of 5-(o-hydroxyaroyl)pyrimidines” (Bioorg Med Chem Lett, 2013)
In brackets after ≈: the same amount, converted by molar mass. Activity calls are given as the source filed them. The rule behind the calls is not given here.

Legend:
[1] = test system: Pseudomonas aeruginosa; assay: Antibacterial activity against Pseudomonas aeruginosa MTCC-741 after overnight incubation by two-fold broth dilution method; assay type: functional
[2] = test system: Aspergillus niger; assay: Antifungal activity against Aspergillus niger MTCC-281 after 24 to 72 hrs by broth dilution method; assay type: functional
[3] = test system: Shigella flexneri; assay: Antibacterial activity against Shigella flexneri MTCC-1457 after overnight incubation by two-fold broth dilution method; assay type: functional
[4] = test system: Candida albicans; assay: Antifungal activity against Candida albicans MTCC-227 after 24 to 72 hrs by broth dilution method; assay type: functional
[5] = test system: Geotrichum; assay: Antifungal activity against Geotrichum candidum MTCC-3993 after 24 to 72 hrs by broth dilution method; assay type: functional
[6] = test system: Staphylococcus aureus; details: MTCC-740
[7] = test system: Escherichia coli; assay: Antibacterial activity against Escherichia coli MTCC-119 after overnight incubation by two-fold broth dilution method; assay type: functional
[8] = test system: Candida tropicalis; assay: Antifungal activity against Candida tropicalis MTCC-230 after 24 to 72 hrs by broth dilution method; assay type: functional
[9] = Cytotoxicity against human HeLa cells assessed as cell survival at 200 uM up to 24 hrs by MTT assay; assay type: cell-based; details: read-out: Survival
[10] = Cytotoxicity against human HeLa cells assessed as cell survival at 20 uM after 24 hrs by MTT assay; assay type: cell-based; details: read-out: Survival
[11] = test system: Staphylococcus aureus; assay: Antibacterial activity against Staphylococcus aureus MTCC-740 after overnight incubation by two-fold broth dilution method

Structure (SMILES) | MIC [1] | MIC [2] | MIC [3] | MIC [4] | MIC [5] | MIC [6] | MIC [7] | MIC [8] | viability at 24 h, 200 µM [9] | viability at 24 h, 20 µM [10] | MIC [11]
O=C(c1cncnc1)c1ccccc1O | 66 µg/mL (≈ 330 µM) | 70 µg/mL (≈ 350 µM) | 58 µg/mL (≈ 290 µM) | 34 µg/mL (≈ 170 µM) | 48 µg/mL (≈ 240 µM) | inactive | 64 µg/mL (≈ 320 µM) | > 100 µg/mL |  |  | 
OC(Cn1cncn1)(Cn1cncn1)c1ccc(F)cc1F [FLUCONAZOLE] |  | 45 µg/mL (≈ 147 µM) |  | 20 µg/mL (≈ 65.3 µM) | 10 µg/mL (≈ 32.7 µM) |  |  | 23 µg/mL (≈ 75.1 µM) |  |  | 
O=C(c1cncnc1)c1cc(F)c(Cl)cc1O | 70 µg/mL (≈ 277 µM) | 48 µg/mL (≈ 190 µM) | 50 µg/mL (≈ 198 µM) | 46 µg/mL (≈ 182 µM) | 15 µg/mL (≈ 59.4 µM) | inactive | > 100 µg/mL | 46 µg/mL (≈ 182 µM) | 84% | 98% | 
O=C(c1cncnc1)c1cc(Cl)ccc1O | 96 µg/mL (≈ 409 µM) | 50 µg/mL (≈ 213 µM) | 74 µg/mL (≈ 315 µM) | 35 µg/mL (≈ 149 µM) | 28 µg/mL (≈ 119 µM) | inactive | 68 µg/mL (≈ 290 µM) | > 100 µg/mL |  |  | 
O=C(O)c1cn(C2CC2)c2cc(N3CCNCC3)c(F)cc2c1=O [CIPROFLOXACIN] | 0.7 µg/mL (≈ 2.11 µM) |  | 1.2 µg/mL (≈ 3.62 µM) |  |  |  |  |  |  |  | 1.6 µg/mL (≈ 4.83 µM)
Cc1ccc(O)c(C(=O)c2cncnc2)c1 | 60 µg/mL (≈ 280 µM) | 55 µg/mL (≈ 257 µM) | 84 µg/mL (≈ 392 µM) | 70 µg/mL (≈ 327 µM) | 40 µg/mL (≈ 187 µM) | inactive | > 100 µg/mL | 54 µg/mL (≈ 252 µM) |  |  | 
O=C(c1cncnc1)c1cc(F)ccc1O | > 100 µg/mL | > 100 µg/mL | 78 µg/mL (≈ 357 µM) | 28 µg/mL (≈ 128 µM) | 35 µg/mL (≈ 160 µM) | inactive | > 100 µg/mL | 78 µg/mL (≈ 357 µM) |  |  | 
